Data as given in patent US7015228B2, “4-amino-2-(2-pyridyl)pyrimidines as microbicidal active substances” (Ciba Specialty Chemicals Corporation, priority 2001, dated 2006).
≈ marks a conversion by molar mass, not a printed value.

Assays:
[1] = tested on: Aspergillus niger ATCC 6275; test: Minimum inhibitory concentration (MIC), further microorganisms; assay type: cell-based; details: Table 8; * = significant inhibition of growth, but not complete inhibition
In short: (§1)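 Broth microdilution in DMSO, 1:2 series; inocula adjusted to 1–5×10^6 CFU/ml then diluted 1:100 in CASO broth (bacteria, yeast) or Sabouraud 2% glucose broth (mould). Incubation 48 h at 37° C or 5 days at 28° C; MIC = lowest concentration giving ≦20% growth versus control by OD 620 nm.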

[2] = tested on: Pseudomonas aeruginosa CIP A-22; test: as above; assay type: cell-based; details: Table 8
In short: as §1

[3] = tested on: Trichophyton mentagrophytes ATCC 9533; test: as above; assay type: cell-based; details: Table 8; * = significant inhibition of growth, but not complete inhibition
In short: as §1

[4] = tested on: Salmonella choleraesuis ATCC 10708; test: as above; assay type: cell-based; details: Table 8
In short: as §1

[5] = tested on: Candida albicans ATCC 10231; test: as above; assay type: cell-based; details: Table 8; * = significant inhibition of growth, but not complete inhibition
In short: as §1

[6] = tested on: Klebsiella pneumonia ATCC 4352; test: as above; assay type: cell-based; details: Table 8; * = significant inhibition of growth, but not complete inhibition
In short: as §1

[7] = tested on: Staphylococcus aureus ATCC 9144; test: as above; assay type: cell-based; details: Table 8; * = significant inhibition of growth, but not complete inhibition
In short: as §1

[8] = tested on: Epidermophyton floccosum DSM 10709; test: as above; assay type: cell-based; details: Table 8; * = significant inhibition of growth, but not complete inhibition
In short: as §1

[9] = tested on: Enterococcus hirae ATCC 10541; test: as above; assay type: cell-based; details: Table 8; * = significant inhibition of growth, but not complete inhibition
In short: as §1

[10] = tested on: S. epidermidis ATCC 12228; test: as above; assay type: cell-based; details: Table 8; * = significant inhibition of growth, but not complete inhibition
In short: as §1

[11] = tested on: Micrococcus luteus ATCC 9341; test: as above; assay type: cell-based; details: Table 8; * = significant inhibition of growth, but not complete inhibition
In short: as §1

[12] = tested on: Escherichia coli NCTC 8196; test: Minimum inhibitory concentration (MIC) in microtitre plates; assay type: cell-based; details: for Minimum inhibitory concentration (MIC) E. coli: Table 7, 48 hours at 37° C., MIC = ≦20% growth compared to control; for Minimum inhibitory concentration (MIC) E. coli NCTC 8196: Table 8, * = significant inhibition of growth, but not complete inhibition
In short: (§2)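 Compounds in DMSO, 1:2 dilution series; bacteria at 1–5×10^6 CFU/ml diluted 1:100 in CASO broth. Incubation 48 h at 37° C, growth read as OD 620 nm. MIC is the lowest concentration giving ≤20% growth relative to control; duplicates.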

[13] = tested on: Staphylococcus hominis DMS 20328; test: as above; assay type: cell-based; details: Table 7; 48 hours at 37° C.; MIC = ≦20% growth compared to control
In short: as §2

[14] = tested on: S. aureus ATCC 6538; test: Determination of the bactericidal activity (logarithmic reduction in organism count); assay type: cell-based, Staphylococcus aureus; details: contact for 30 minutes at a substance concentration of 120 μg/mL
Experimental: (§3) Determination of the Bactericidal Activity of Selected Compounds
(§4) Casein-soybean flour-peptone broth for preparation of pre-cultures of test bacteria
(§5) Examples of Test Organisms:
(§6) • Staphylococcus aureus ATCC 6538 • Escherichia coli ATCC 10536 • Salmonella choleraesuis ATCC 10708 Procedure:
(§7) The test substances are dissolved in dimethyl sulfoxide (DMSO) and tested in a concentration of 120 μg/ml.
(§8) Bacteria are incubated overnight in CASO broth and adjusted to an organism count of 1–5×10^5 CFU/ml using 0.85% sodium chloride solution.
(§9) The test substances are pre-pipetted into microtitre plates in amounts of 8 μl per well.
(§10) The adjusted test organism suspensions are added in amounts of 192 μl per well to the test substances and mixed. After defined contact times, the test batches are mixed, an aliquot is withdrawn and diluted in several steps in a dilution series of 1:10 in a suitable inactivation medium.
The test plates are incubated for 24 hours at 37° C.
After incubation, the growth is determined on the basis of the turbidity of the test batches (optical density) at 620 nm in a microplate reader.
(§11) One microtitre plate is used for each test organism.
(§12) All the substances are tested in duplicate.

[15] = tested on: E. coli NCTC 8196; test: as above; assay type: cell-based, Escherichia coli; details: contact for 30 minutes at a substance concentration of 120 μg/mL
[16] = tested on: S. choleraesuis ATCC 10708; test: as above; assay type: cell-based, Salmonella choleraesuis; details: contact for 30 minutes at a substance concentration of 120 μg/mL
Experimental: as §3, §4, §5, §6, §7, §8, §9, §10
The test plates are incubated for 24 hours at 37° C. […]
as §11, §12

Minimum inhibitory concentration (MIC) Aspergillus niger ATCC 6275 [1] | Minimum inhibitory concentration (MIC) Pseudomonas aeruginosa CIP A-22 [2] | Minimum inhibitory concentration (MIC) Trichophyton mentagrophytes ATCC 9533 [3] | Minimum inhibitory concentration (MIC) Candida albicans ATCC 10231 [5] | Minimum inhibitory concentration (MIC) Klebsiella pneumonia ATCC 4352 [6] | Minimum inhibitory concentration (MIC) Staphylococcus aureus ATCC 9144 [7] | Minimum inhibitory concentration (MIC) Epidermophyton floccosum DSM 10709 [8] | Minimum inhibitory concentration (MIC) Enterococcus hirae ATCC 10541 [9] | Minimum inhibitory concentration (MIC) S. epidermidis ATCC 12228 [10] | Minimum inhibitory concentration (MIC) Micrococcus luteus ATCC 9341 [11] | Minimum inhibitory concentration (MIC) E. coli [12] | Minimum inhibitory concentration (MIC) E. coli NCTC 8196 [12] | Minimum inhibitory concentration (MIC) S. hominis [13] | Structure (SMILES) | Minimum inhibitory concentration (MIC) Salmonella choleraesuis ATCC 10708 [4] | Logarithmic reduction in organism count, S. aureus ATCC 6538 [14] | Logarithmic reduction in organism count, E. coli NCTC 8196 [15] | Logarithmic reduction in organism count, S. choleraesuis ATCC 10708 [16]
>60 µg/mL | >120 µg/mL | >60 µg/mL | 120 µg/mL (≈ 402 µM) | 120 µg/mL (≈ 402 µM) | 120 µg/mL (≈ 402 µM) | >60 µg/mL | 120 µg/mL (≈ 402 µM) | 120 µg/mL (≈ 402 µM) | 120 µg/mL (≈ 402 µM) | 60 µg/mL (≈ 201 µM) | 120 µg/mL (≈ 402 µM) | 3.75 µg/mL (≈ 12.6 µM) | CCCCCCCCNc1cc(C)nc(-c2ccccn2)n1 [compound 21] | >120 µg/mL |  |  | 
60 µg/mL (≈ 192 µM) | >60 µg/mL | 15 µg/mL (≈ 48 µM) | 15 µg/mL (≈ 48 µM) | >60 µg/mL | 7.5 µg/mL (≈ 24 µM) | *7.5 μg/mL | <3.75 µg/mL | <3.75 µg/mL | <3.75 µg/mL | 120 µg/mL (≈ 384 µM) | >60 µg/mL | 3.75 µg/mL (≈ 12 µM) | CCCCCCCCCNc1cc(C)nc(-c2ccccn2)n1 [compound 22] | >60 µg/mL |  |  | 
>60 µg/mL | >60 µg/mL | >60 µg/mL | >60 µg/mL | >60 µg/mL | >60 µg/mL | >60 µg/mL | >60 µg/mL | >60 µg/mL | >60 µg/mL | 120 µg/mL (≈ 336 µM) | >60 µg/mL | 30 µg/mL (≈ 83.9 µM) | COCCc1cc(NCCCCCCCCN)nc(-c2ccccn2)n1 [compound 77] | >60 µg/mL |  |  | 
>60 µg/mL | >60 µg/mL | >60 µg/mL | 30 µg/mL (≈ 84.6 µM) | >60 µg/mL | <3.75 µg/mL | 60 µg/mL (≈ 169 µM) | *15 μg/mL | 3.75 µg/mL (≈ 10.6 µM) | <3.75 µg/mL | 80 µg/mL (≈ 226 µM) | >60 µg/mL | 2.5 µg/mL (≈ 7.05 µM) | CCCCCCCCCCCCNc1cc(C)nc(-c2ccccn2)n1 [compound 24] | >60 µg/mL |  |  | 
>60 µg/mL | >60 µg/mL | >60 µg/mL | >60 µg/mL | >60 µg/mL | >60 µg/mL | >60 µg/mL | >60 µg/mL | >60 µg/mL | 60 µg/mL (≈ 157 µM) | 120 µg/mL (≈ 315 µM) | >60 µg/mL | 120 µg/mL (≈ 315 µM) | NCCCCCCCCCNc1cc(C(F)(F)F)nc(-c2ccccn2)n1 [compound 30] | >60 µg/mL |  |  | 
*60 μg/mL | >60 µg/mL | *15 μg/mL | 60 µg/mL (≈ 176 µM) | *60 μg/mL | 7.5 µg/mL (≈ 22 µM) | 15 µg/mL (≈ 44.1 µM) | 3.75 µg/mL (≈ 11 µM) | 7.5 µg/mL (≈ 22 µM) | <3.75 µg/mL | 120 µg/mL (≈ 352 µM) | >60 µg/mL | 3.75 µg/mL (≈ 11 µM) | CCCCCCCCNc1nc(-c2ccccn2)nc(C)c1C(C)C [compound 69] | >60 µg/mL |  |  | 
>60 µg/mL | >60 µg/mL | >60 µg/mL | >60 µg/mL | >60 µg/mL | *60 μg/mL | >60 µg/mL | >60 µg/mL | >60 µg/mL | 15 µg/mL (≈ 40.6 µM) | 120 µg/mL (≈ 325 µM) | >60 µg/mL | 30 µg/mL (≈ 81.2 µM) | CC(C)(C)c1cc(NCCCCCCCCCN)nc(-c2ccccn2)n1 [compound 54] | >60 µg/mL |  |  | 
>60 µg/mL | >60 µg/mL | >60 µg/mL | 7.5 µg/mL (≈ 20.3 µM) | >60 µg/mL | 60 µg/mL (≈ 162 µM) | >60 µg/mL | 60 µg/mL (≈ 162 µM) | 60 µg/mL (≈ 162 µM) | 7.5 µg/mL (≈ 20.3 µM) | 60 µg/mL (≈ 162 µM) | >60 µg/mL | 15 µg/mL (≈ 40.6 µM) | Cc1cc(NCCCCCCCCCCCCN)nc(-c2ccccn2)n1 [compound 19] | >60 µg/mL |  |  | 
 |  |  |  |  |  |  |  |  |  |  |  |  | CCCCCCCCCCCNc1cc(C)nc(-c2ccccn2)n1 [Compound of formula 92] |  | >3 log | <1 log | ≦1 log
